Measured values reported in PubChem BioAssay (NCI).
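Method: 48-hour compound exposure of cells in 96-well plates, five concentrations, linear interpolation of endpoints. GI50 is the concentration that inhibits growth by half. At the TGI there is no net growth.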

Columns and labels:
Assay in all cases: DTP human tumour cell line panel, 48 h
CCRF-CEM leukemia = test system: CCRF-CEM leukemia
HL-60(TB) leukemia = test system: HL-60(TB) leukemia
SK-MEL-2 melanoma = test system: SK-MEL-2 melanoma
SR leukemia = test system: SR leukemia
OVCAR-4 ovarian = test system: OVCAR-4 ovarian
M14 melanoma = test system: M14 melanoma
IGROV1 ovarian = test system: IGROV1 ovarian
OVCAR-5 ovarian = test system: OVCAR-5 ovarian
TK-10 renal = test system: TK-10 renal
NCI/ADR-RES ovarian = test system: NCI/ADR-RES ovarian
PC-3 prostate = test system: PC-3 prostate
NCI-H23 lung = test system: NCI-H23 lung
SNB-19 CNS = test system: SNB-19 CNS
SK-OV-3 ovarian = test system: SK-OV-3 ovarian
A498 renal = test system: A498 renal
NCI-H522 lung = test system: NCI-H522 lung
UACC-257 melanoma = test system: UACC-257 melanoma
SF-295 CNS = test system: SF-295 CNS
HOP-62 NSCLC = test system: HOP-62 NSCLC
SF-268 CNS = test system: SF-268 CNS
KM12 colon = test system: KM12 colon
U251 CNS = test system: U251 CNS
ACHN renal = test system: ACHN renal
NCI-H460 lung = test system: NCI-H460 lung
K-562 leukemia = test system: K-562 leukemia
LOX IMVI melanoma = test system: LOX IMVI melanoma
SNB-75 CNS = test system: SNB-75 CNS
MOLT-4 leukemia = test system: MOLT-4 leukemia
MCF7 breast = test system: MCF7 breast
MDA-MB-435 = test system: MDA-MB-435
MDA-MB-231 breast = test system: MDA-MB-231 breast
A549 NSCLC = test system: A549 NSCLC
BT-549 breast = test system: BT-549 breast
OVCAR-8 ovarian = test system: OVCAR-8 ovarian
DU-145 prostate = test system: DU-145 prostate
MALME-3M melanoma = test system: MALME-3M melanoma
CAKI-1 renal = test system: CAKI-1 renal
RPMI-8226 leukemia = test system: RPMI-8226 leukemia
COLO 205 colon = test system: COLO 205 colon
SK-MEL-5 melanoma = test system: SK-MEL-5 melanoma
SW-620 colon = test system: SW-620 colon
786-0 renal = test system: 786-0 renal
HT29 colon = test system: HT29 colon
HS 578T breast = test system: HS 578T breast
EKVX NSCLC = test system: EKVX NSCLC
UO-31 renal = test system: UO-31 renal
SK-MEL-28 melanoma = test system: SK-MEL-28 melanoma
UACC-62 melanoma = test system: UACC-62 melanoma
HCT-15 colon = test system: HCT-15 colon
OVCAR-3 ovarian = test system: OVCAR-3 ovarian
SN12C renal = test system: SN12C renal
HCC-2998 colon = test system: HCC-2998 colon
HOP-92 NSCLC = test system: HOP-92 NSCLC
HCT-116 colon = test system: HCT-116 colon
NCI-H226 lung = test system: NCI-H226 lung
SF-539 CNS = test system: SF-539 CNS

Which GI50 (CCRF-CEM leukemia) does the source give for CC[C@]1(O)C[C@H]2CN(CCc3c([nH]c4ccccc34)C(C(=O)OC)(c3cc4c(cc3OC)N(C)[C@H]3[C@@](O)(C(=O)OC)[C@H](OC(C)=O)[C@]5(CC)[C@@H]6C[C@@H]6CN6CC[C@]43[C@@H]65)C2)C1 (stereo partly specified) here?
The GI50 was 4.56 nM.

And the TGI (CCRF-CEM leukemia)?
The TGI was greater than 12900 nM.

And the GI50 (HL-60(TB) leukemia)?
Its GI50 is 3.4 nM.

And the TGI (HL-60(TB) leukemia)?
Its TGI is 10.8 nM.

What about the GI50 (SK-MEL-2 melanoma) of the same molecule?
Its GI50 is less than 1.43 nM.

What about the TGI (SK-MEL-2 melanoma) of the same molecule?
The TGI was 143 nM.

And the GI50 (SR leukemia)?
The GI50 was 2.11 nM.

And the TGI (SR leukemia)?
The TGI was 3490 nM.

And the GI50 (OVCAR-4 ovarian)?
The GI50 was 26.6 nM.

And the TGI (OVCAR-4 ovarian)?
Its TGI is greater than 7510 nM.

And the GI50 (M14 melanoma)?
Its GI50 is 3.65 nM.

And the TGI (M14 melanoma)?
The TGI was 254 nM.

What about the GI50 (IGROV1 ovarian) of the same molecule?
The GI50 was 8.12 nM.

And the TGI (IGROV1 ovarian)?
The TGI was 5110 nM.

What about the GI50 (OVCAR-5 ovarian) of the same molecule?
The GI50 was 9.74 nM.

What about the TGI (OVCAR-5 ovarian) of the same molecule?
The TGI was greater than 6670 nM.

What about the GI50 (TK-10 renal) of the same molecule?
Its GI50 is 40.4 nM.

And the TGI (TK-10 renal)?
Its TGI is 5620 nM.

What about the GI50 (NCI/ADR-RES ovarian) of the same molecule?
The GI50 was 101 nM.

What about the TGI (NCI/ADR-RES ovarian) of the same molecule?
Its TGI is 797 nM.

And the GI50 (PC-3 prostate)?
The GI50 was 2.96 nM.

And the TGI (PC-3 prostate)?
Its TGI is greater than 11800 nM.

And the GI50 (NCI-H23 lung)?
Its GI50 is 3 nM.

What about the TGI (NCI-H23 lung) of the same molecule?
The TGI was 498 nM.

What about the GI50 (SNB-19 CNS) of the same molecule?
Its GI50 is 6.67 nM.

What about the TGI (SNB-19 CNS) of the same molecule?
The TGI was greater than 14300 nM.

What about the GI50 (SK-OV-3 ovarian) of the same molecule?
Its GI50 is 2.85 nM.

What about the TGI (SK-OV-3 ovarian) of the same molecule?
The TGI was 17.6 nM.

What about the GI50 (A498 renal) of the same molecule?
The GI50 was 2.75 nM.

What about the TGI (A498 renal) of the same molecule?
Its TGI is 12 nM.

And the GI50 (NCI-H522 lung)?
Its GI50 is less than 1.43 nM.

And the TGI (NCI-H522 lung)?
The TGI was 5.28 nM.

What about the GI50 (UACC-257 melanoma) of the same molecule?
Its GI50 is 5.09 nM.

And the TGI (UACC-257 melanoma)?
The TGI was greater than 8640 nM.

And the GI50 (SF-295 CNS)?
The GI50 was 2.33 nM.

And the TGI (SF-295 CNS)?
The TGI was 393 nM.

What about the GI50 (HOP-62 NSCLC) of the same molecule?
The GI50 was 3.65 nM.

And the TGI (HOP-62 NSCLC)?
Its TGI is greater than 9220 nM.

What about the GI50 (SF-268 CNS) of the same molecule?
The GI50 was 14.5 nM.

What about the TGI (SF-268 CNS) of the same molecule?
Its TGI is 10400 nM.

And the GI50 (KM12 colon)?
The GI50 was 2.96 nM.

And the TGI (KM12 colon)?
The TGI was 1260 nM.

And the GI50 (U251 CNS)?
Its GI50 is 3.44 nM.

What about the TGI (U251 CNS) of the same molecule?
Its TGI is 527 nM.

And the GI50 (ACHN renal)?
The GI50 was 12 nM.

What about the TGI (ACHN renal) of the same molecule?
The TGI was greater than 14300 nM.

And the GI50 (NCI-H460 lung)?
Its GI50 is 4.26 nM.

And the TGI (NCI-H460 lung)?
Its TGI is greater than 4610 nM.

What about the GI50 (K-562 leukemia) of the same molecule?
Its GI50 is 2.66 nM.

And the TGI (K-562 leukemia)?
Its TGI is 2820 nM.

And the GI50 (LOX IMVI melanoma)?
Its GI50 is 2.73 nM.

What about the TGI (LOX IMVI melanoma) of the same molecule?
Its TGI is greater than 10300 nM.

What about the GI50 (SNB-75 CNS) of the same molecule?
Its GI50 is 4.37 nM.

What about the TGI (SNB-75 CNS) of the same molecule?
The TGI was 6360 nM.

What about the GI50 (MOLT-4 leukemia) of the same molecule?
Its GI50 is 7.4 nM.

And the TGI (MOLT-4 leukemia)?
The TGI was 5430 nM.

And the GI50 (MCF7 breast)?
Its GI50 is 1.9 nM.

What about the TGI (MCF7 breast) of the same molecule?
Its TGI is greater than 14300 nM.

What about the GI50 (MDA-MB-435) of the same molecule?
Its GI50 is less than 1.43 nM.

And the TGI (MDA-MB-435)?
The TGI was 2.19 nM.

What about the GI50 (MDA-MB-231 breast) of the same molecule?
The GI50 was 7.5 nM.

What about the TGI (MDA-MB-231 breast) of the same molecule?
Its TGI is 239 nM.

What about the GI50 (A549 NSCLC) of the same molecule?
The GI50 was 3.72 nM.

What about the TGI (A549 NSCLC) of the same molecule?
Its TGI is greater than 14300 nM.

What about the GI50 (BT-549 breast) of the same molecule?
Its GI50 is 15.6 nM.

And the TGI (BT-549 breast)?
Its TGI is 683 nM.

What about the GI50 (OVCAR-8 ovarian) of the same molecule?
Its GI50 is 6.88 nM.

And the TGI (OVCAR-8 ovarian)?
The TGI was 168 nM.

And the GI50 (DU-145 prostate)?
Its GI50 is less than 1.43 nM.

And the TGI (DU-145 prostate)?
The TGI was greater than 14300 nM.

And the GI50 (MALME-3M melanoma)?
Its GI50 is 6.59 nM.

And the TGI (MALME-3M melanoma)?
Its TGI is greater than 8730 nM.

And the GI50 (CAKI-1 renal)?
The GI50 was 34.5 nM.

What about the TGI (CAKI-1 renal) of the same molecule?
The TGI was 6170 nM.

And the GI50 (RPMI-8226 leukemia)?
The GI50 was 4.69 nM.

And the TGI (RPMI-8226 leukemia)?
The TGI was 2070 nM.

What about the GI50 (COLO 205 colon) of the same molecule?
The GI50 was 2.46 nM.

And the TGI (COLO 205 colon)?
The TGI was 9.37 nM.

And the GI50 (SK-MEL-5 melanoma)?
The GI50 was 1.84 nM.

And the TGI (SK-MEL-5 melanoma)?
The TGI was 31.3 nM.

What about the GI50 (SW-620 colon) of the same molecule?
The GI50 was 5.64 nM.

What about the TGI (SW-620 colon) of the same molecule?
Its TGI is greater than 14300 nM.

What about the GI50 (786-0 renal) of the same molecule?
Its GI50 is 6.8 nM.

And the TGI (786-0 renal)?
Its TGI is 5000 nM.

And the GI50 (HT29 colon)?
The GI50 was 2.58 nM.

What about the TGI (HT29 colon) of the same molecule?
Its TGI is 86.7 nM.

And the GI50 (HS 578T breast)?
Its GI50 is 3.31 nM.

What about the GI50 (EKVX NSCLC) of the same molecule?
Its GI50 is 6.88 nM.

And the TGI (EKVX NSCLC)?
Its TGI is greater than 14300 nM.

What about the GI50 (UO-31 renal) of the same molecule?
Its GI50 is 76 nM.

What about the TGI (UO-31 renal) of the same molecule?
Its TGI is 7660 nM.

What about the GI50 (SK-MEL-28 melanoma) of the same molecule?
The GI50 was 3.05 nM.

And the TGI (SK-MEL-28 melanoma)?
The TGI was greater than 14300 nM.

What about the GI50 (UACC-62 melanoma) of the same molecule?
The GI50 was 2.2 nM.

And the TGI (UACC-62 melanoma)?
Its TGI is greater than 14300 nM.

What about the GI50 (HCT-15 colon) of the same molecule?
Its GI50 is 37.4 nM.

And the TGI (HCT-15 colon)?
The TGI was greater than 14300 nM.

And the GI50 (OVCAR-3 ovarian)?
Its GI50 is 1.84 nM.

What about the TGI (OVCAR-3 ovarian) of the same molecule?
Its TGI is 9.45 nM.

What about the GI50 (SN12C renal) of the same molecule?
Its GI50 is 8.38 nM.

What about the TGI (SN12C renal) of the same molecule?
Its TGI is greater than 14300 nM.

What about the GI50 (HCC-2998 colon) of the same molecule?
Its GI50 is 4.5 nM.

And the TGI (HCC-2998 colon)?
The TGI was 278 nM.

What about the GI50 (HOP-92 NSCLC) of the same molecule?
The GI50 was 6.82 nM.

And the TGI (HOP-92 NSCLC)?
Its TGI is 827 nM.

And the GI50 (HCT-116 colon)?
Its GI50 is 3.48 nM.

What about the TGI (HCT-116 colon) of the same molecule?
The TGI was 4130 nM.

And the GI50 (NCI-H226 lung)?
The GI50 was 23.1 nM.

What about the TGI (NCI-H226 lung) of the same molecule?
The TGI was greater than 1590 nM.

What about the GI50 (SF-539 CNS) of the same molecule?
Its GI50 is 22.6 nM.

What about the TGI (SF-539 CNS) of the same molecule?
The TGI was 3040 nM.
